This experiment deals with preadipocyte 3T3-L1 cells. The experiment can be described thus: Suppression of fat droplet accumulation in adipocytes (Oil Red O staining, OD 490 nm). The class given is cell-based, mouse. The conditions noted are these: for Relative amount of fat accumulation: 3T3-L1 adipocytes, samples added Day 0 to Day 7 or 8 at the concentrations of each (Comparative) Example, medium to which nothing was added regarded as 100; for amount of fat accumulation: control (Comparative Example 1b) = 100; for relative amount of fat accumulation in adipocytes: control = 100. The method, then: Because they are immortalized cells, they can be mass-produced as fibroblasts before induction of differentiation. […] The passage media used were passage medium A (DMEM (4.5 g/L Glu), (Sigma, glucose, […]), 10% BS (Gibco, 16170), and 1% antibiotic (Gibco, Antibiotic-Antimycotic, 15240-062)) and passage medium B (DMEM (4.5 g/L Glu), 10% FBS (Biowest, S1560), and 1% antibiotic). The differentiation-inducing medium used was prepared by adding a 10-μg/mL insulin solution (Wako, 093-06351), 0.25 μM Dexamethasone (Sigma, D4902), and 0.11-mg/mL 3-isobutyl-1-methylxanthine (Sigma, 15879) to passage medium B. The differentiation-promoting medium used was prepared by adding a 5-μg/mL insulin solution to passage medium B. The differentiation-inducing medium and the differentiation-promoting medium were prepared before use. The oleuropein used was an “oleuropein” reagent available from Sigma. In the experiment, the oleuropein was used in such an amount that the final concentration was 50 μM. The hydroxytyrosol used was a “hydroxytyrosol” reagent available from Sigma. In the experiment, the hydroxytyrosol was used in such an amount that the final concentration was 25 μM. The willow extract used was a water extract (dry powder) of young branches including sprouts of willow (a plant mixture containing at least one or more members selected from Salix daphnoides, Salix purpurea, Salix fragilis, and Salix alba). In the experiment, the extract was diluted with the medium so that the final concentrations were 2.5, 5, 12.5, 25, 50, 100, and 200 μg/mL. The sulforaphane used was a “sulforaphane” reagent available from Sigma. In the experiment, a 100-mM DMSO solution was prepared, and diluted with the medium. A 5-mM γ-orizanol solution was prepared, and diluted with the medium. […] Embryo mouse) was grown in passage medium A. […] Sumilon Celltight C-1) so that the concentration was 2.5×10^4 cells/well. The cells were cultured for 2 days at 37° C. in the presence of 5% CO2. Thereafter, the medium was replaced with passage medium B. After confluent growth, culture was continued for about 2 days in passage medium B, and the medium was replaced with the differentiation-inducing medium (Day 0). Within 48 hours after the differentiation of the cells was induced in the differentiation-inducing medium, the medium was replaced with the differentiation-promoting medium (Day 2). Each sample was continuously added from the time of the replacement of the differentiation-inducing medium (Day 0) to Day 7 or 8. Cold 10% formalin/PBS was prepared by adding 10% (v/v) formalin to PBS (phosphate buffered saline) and adjusting the pH to 7.4, and then stored at 4° C. In this experiment, a 10% neutral buffered formalin solution (Wako, 060-03845) was used. The stain solution used was a 0.5% Oil Red O/isopropanol solution. Oil Red O (Wako, 154-02072) was dissolved in isopropanol (Sigma) by shaking to prepare a saturated solution. The 0.5% Oil Red 0/isopropanol solution and distilled water were mixed at a ratio of 3:2 immediately before use (preparation before use). The 3T3-L1 cells in the well plate cultured to Day 7 or 8 by the above culture method were used. Cold 10% formalin/PBS (0.5 mL/well) was added to the well plate containing the medium, and allowed to stand at room temperature. After the medium was removed, cold 10% formalin/PBS (0.5 mL/well) was newly added, and allowed to stand at room temperature. After the formalin solution was removed, the well plate was washed 2 or 3 times with distilled water (1 mL/well) to completely remove the remaining […]. After the well plate was washed once with 60% isopropanol (0.5 mL/well), the filtered stain solution was added at 1 mL/well, and allowed to stand at room temperature. After staining, the well plate was washed once with 60% isopropanol (0.5 mL/well), and washed 2 or 3 times with distilled water (1 mL/well). […] The eluted isopropanol solution was measured by a microplate reader at OD 490 nm. […]

As for `C/C=C1/[C@H](O[C@@H]2O[C@H](CO)[C@@H](O)[C@H](O)[C@H]2O)OC=C(C(=O)OC)[C@H]1CC(=O)OCCc1ccc(O)c(O)c1` [1a, Oleuropein], the “Relative amount of fat accumulation” value is 99.9.

Consider `OCCc1ccc(O)c(O)c1` [2b, Hydroxytyrosol], for which the “Relative amount of fat accumulation” value was found to be 99.3. Still for that read-out and setting: as for `C[S+]([O-])CCCCN=C=S` (stereo not shown) [3a, Sulforaphane], the figure is 110.7; as for `OCCc1ccc(O)c(O)c1` [3b, Hydroxytyrosol], 78.4. The same measure, in the same setting: next, `C[S+]([O-])CCCCN=C=S` (stereo not shown) [5a, Sulforaphane]: 100.9. `C[S+]([O-])CCCCN=C=S` (stereo not shown) [5b, Sulforaphane]: the “Relative amount of fat accumulation” value is 104.8.

As for `C[S+]([O-])CCCCN=C=S` (stereo not shown) [6b, Sulforaphane], the “Relative amount of fat accumulation” value stood at 100.8.

On to `C[S+]([O-])CCCCN=C=S` (stereo not shown) [Comparative Example 4a, Sulforaphane], for which the “Relative amount of fat accumulation” value is recorded as 109.8. As to `OCCc1ccc(O)c(O)c1` [hydroxytyrosol], the “amount of fat accumulation” value (25 μM added alone) is “around 100”. For the same compound, the “fat accumulation-suppressing effect higher than that of the control” value (37.5 μM added alone) is “about 25%”.

Turning to `C/C=C1/[C@H](O[C@@H]2O[C@H](CO)[C@@H](O)[C@H](O)[C@H]2O)OC=C(C(=O)OC)[C@H]1CC(=O)OCCc1ccc(O)c(O)c1` [oleuropein], the “relative amount of fat accumulation in adipocytes” value (50 μM added alone) is on record as “around 100”.

Turning to `C[S+]([O-])CCCCN=C=S` (stereo not shown) [sulforaphane], the “amount of fat accumulation” value (0.25 or 2.5 μM added alone) is given as “around 100”. Besides, where the note is “0.5 to 1.25 μM added alone”, the “relative amount of fat accumulation in adipocytes” value was “around 100”. For the compound γ-Orizanol [7b], the “Relative amount of fat accumulation” value worked out at 78.5. The same measure, in the same setting: as for γ-Orizanol [Comparative Example 6a], the figure is 51.4.

Consider γ-orizanol, for which the “fat accumulation-suppressing effect higher than that of the control” value (0.5 μM added alone) was “about 25%”.

(Values after US10603332B2, “Anti-obesity composition” (SUNSTAR INC., priority 2013, dated 2020).)
